Assays:
[1] = test system: Peas (Pisum sativum); experiment: Soil incorporation (attaclay/sand dust), growth regulatory or herbicidal effects, peas; format: in vivo; conditions: Lathyrus oleraceus, 504 h, soil incorporation 130 ppm, 21 days, 0=no effect, 100=complete kill/suppression, read-out: growth regulatory or herbicidal effect score
Text: (§1) The compounds listed below were each formulated as an attaclay/sand dust and incorporated into John Innes I potting compost at a rate equivalent to 26 parts per million weight/volume of active ingredient to soil and placed in anodised aluminium pans, 19 cm long×9.5 cm wide×5.0 cm deep. This rate is approximately equivalent to a soil surface application of 11.2 kg active ingredient/hectare cultivated to a depth of 5 cm. Seeds of the species listed below were sown in the treated soil, watered and placed in a controlled environment room (22° C.; 65-85% relative humidity; 14 hours per day artificial illumination at 13,000 lux) for 21 days. The plants were then visually assessed for any growth regulatory or herbicidal effects. All differences from an untreated control were scored on a scale from 0-100, where 0 signifies no effect and 100 signifies complete kill.
(§2) The compounds listed below were tested according to the procedure of Examples 56-60 but at 130 parts per million weight/volume of active ingredient to soil. This rate is approximately equivalent to a soil surface application of 56 kg active ingredient per hectare cultivated to a depth of 5 cm.
(§3) The product of Example 95 was tested according to the procedure of Examples 56-60 but at 130 and 26 parts per million weight/volume. The results were as follows:
(§4) N-(2-oxopropyl)-2'-chloro-6'-methyl-methanesulphonanilide, formulated as an attaclay/sand dust, was incorporated in John Innes I potting compost at a rate equivalent to 130 parts per million weight/volume of active ingredient to soil and placed in anodised aluminium pans, 19 cm long×9.5 cm wide×5.0 cm deep. These rates are approximately equivalent to a soil surface application of 56 kg active ingredient per hectare cultivated to a depth of 5 cm. Seeds of Peas, Mustard, Linseed, Maize, Oats and Ryegrass were sown in the treated soil, watered and placed in a controlled environment room (22° C.; 65-85% relative humidity; 14 hours artificial illumination at 13000 lux) for 21 days.
(§5) The plants were then visually assessed for any growth regulatory or herbicidal effects. All differences from an untreated control were scored on a scale from 0-100, where 0 signifies no effect and 100 signifies complete suppression.

[2] = test system: Oats (Avena sativa); experiment: Soil incorporation (attaclay/sand dust), growth regulatory or herbicidal effects, oats; format: in vivo; conditions: 504 h, soil incorporation 130 ppm, 21 days, 0=no effect, 100=complete kill/suppression, read-out: growth regulatory or herbicidal effect score
Text: as §1, §2, §3, §4, §5

[3] = test system: Linseed (Linum usitatissimum); experiment: Soil incorporation (attaclay/sand dust), growth regulatory or herbicidal effects, linseed; format: in vivo; conditions: 504 h, soil incorporation 130 ppm, 21 days, 0=no effect, 100=complete kill/suppression, read-out: growth regulatory or herbicidal effect score
Text: as §1, §2, §3, §4, §5

[4] = test system: Maize (Zea mays); experiment: Soil incorporation (attaclay/sand dust), growth regulatory or herbicidal effects, maize; format: in vivo; conditions: 504 h, soil incorporation 130 ppm, 21 days, 0=no effect, 100=complete kill/suppression, read-out: growth regulatory or herbicidal effect score
Text: as §1, §2, §3, §4, §5

[5] = test system: Ryegrass (Lolium perenne); experiment: Soil incorporation (attaclay/sand dust), growth regulatory or herbicidal effects, ryegrass; format: in vivo; conditions: 504 h, soil incorporation 130 ppm, 21 days, 0=no effect, 100=complete kill/suppression, read-out: growth regulatory or herbicidal effect score
Text: as §1, §2, §3, §4, §5

[6] = test system: Mustard (Sinapis alba); experiment: Soil incorporation (attaclay/sand dust), growth regulatory or herbicidal effects, mustard; format: in vivo; conditions: 504 h, soil incorporation 130 ppm, 21 days, 0=no effect, 100=complete kill/suppression, read-out: growth regulatory or herbicidal effect score
Text: as §1, §2, §3, §4, §5

[7] = test system: Pythium ultimum; experiment: Fungal growth on the surface of soil infected with damping-off disease organism; format: in vivo; conditions: 6 days, 25° C.
Description: (§6) A one week old maize meal/sand culture of the damping-off disease organism Pythium ultimum was thoroughly mixed by hand with clean sterile John Innes No. 1 potting compost in the ratio of 3 kg culture to 12 liters of soil. The infected soil was then left for approximately 18 hours before use. Each of the compounds listed below was ground together with a wetting agent, Tween 20 (1% of final volume), until a solution or fine suspension was produced which was then diluted with distilled water to give 160 ml of solution containing 1500, 500, 150 or 50 ppm active ingredient. 15 ml aliquots of this solution were added to 75 g portions of the soil infected with Pythium ultimum which were contained in small plastic cartons, 60 mm diameter×55 mm high. Fifteen cabbage seeds, variety Flower of Spring, were placed in a circular depression in the treated infected soil, recovered, and the whole sealed with a plastic cap. The cartons were then placed in a constant temperature room at 25° C.±1° C. Four replications per treatment were made with one additional treatment where seeds were sown in soil which was chemically treated only, i.e. there was no infection. This latter treatment was included to measure the direct effect of the chemical on the germination of the seed. After six days the cartons were removed from the controlled temperature chamber and assessed for degree of fungal growth on the soil surface and percentage of seedling emergence. The results of both these assessments are expressed in a 0-8 scale as follows:
(§7) One week old maize meal/sand culture of the damping-off disease organism Pythium ultimum was thoroughly mixed by hand with clean sterile John Innes No. 1 potting compost in the ratio of 3 kg culture to 12 liters of soil. This infected soil was then left for approximately 18 hours before use. The compounds listed in the Table below were each ground with the wetting agent Tween 20 (1% of final volume), until a solution or fine suspension was produced, which was then diluted with distilled water to give 160 ml of solution containing 1500 or 500 parts per million (ppm) active ingredient. 15 ml aliquots of this solution were added to 75 g portions of the soil infected with Pythium ultimum which were contained in small plastic cartons, 60 mm diameter×55 mm high.
(§8) Fifteen cabbage seeds, variety Flower of Spring, were placed in a circular depression in the treated infected soil, recovered, and the whole sealed with a plastic cap. The cartons were then placed in a constant temperature room at 25° C.±1° C. Four replications per treatment were made, with one additional treatment where seeds were sown in soil which was chemically treated only, i.e. there was no infection. This latter treatment was included to measure the direct effect of the chemical on the germination of the seed.
(§9) After six days, the cartons were removed from the controlled temperature chamber and assessed for degree of fungal growth on the soil surface and percentage of seedling emergence. The results of both these assessments are expressed in a 0-8 scale as follows:
(§10) N-(2-oxopropyl)-3',4'-dimethyl-methanesulphonanilide was tested at a dose rate of 300 ppm in the test described in Examples 233 and 234. It gave a mycelial control score of 0 and a germination score of 3 whereas the untreated samples gave a score of 0 for both.

[8] = test system: Pythium ultimum; experiment: Cabbage seedling emergence in soil infected with Pythium ultimum; format: in vivo, Pythium ultimum (on cabbage, variety Flower of Spring); conditions: 6 days, 25° C.
Description: as §6, §7, §8, §9, §10

[9] = 300 ppm, 0-8 scale (Examples 233, 234, 268)

CC(C(=O)O)N(c1ccc(Cl)c(Cl)c1)S(C)(=O)=O (centres unmarked) [Example 4]
pest or weed control at 130 µg/mL [1]: 70%
plant injury at 130 µg/mL [2]: 40%
pest or weed control at 130 µg/mL [3]: 90%
plant injury at 130 µg/mL [4]: 70%
pest or weed control at 130 µg/mL [5]: 0%
pest or weed control at 130 µg/mL [6]: 70%

CCc1ccccc1N(C(C)C(=O)O)S(C)(=O)=O (centres unmarked) [Example 5]
pest or weed control at 130 µg/mL [1]: 30%
plant injury at 130 µg/mL [2]: 30%
pest or weed control at 130 µg/mL [3]: 70%
plant injury at 130 µg/mL [4]: 30%
pest or weed control at 130 µg/mL [5]: 20%
pest or weed control at 130 µg/mL [6]: 50%

Cc1cccc(C)c1N([C@@H](C)C(=O)O)S(C)(=O)=O [Example 7, N-(2,6-dimethylphenyl)-N-methanesulphonyl alanine]
pest or weed control at 130 µg/mL [1]: 20%
plant injury at 130 µg/mL [2]: 30%
pest or weed control at 130 µg/mL [3]: 50%
plant injury at 130 µg/mL [4]: 30%
pest or weed control at 130 µg/mL [5]: 0%
pest or weed control at 130 µg/mL [6]: 70%

CCS(=O)(=O)N(c1c(C)cccc1C)C(C)C(=O)O (centres unmarked) [Example 9]
Mycelial Control Score ([7]; 30 ppm, 0-8 scale): 0 (<20% inhibition)
Mycelial Control Score ([7]; 100 ppm, 0-8 scale): 0 (<20% inhibition)
Mycelial Control Score ([7]; 300 ppm, 0-8 scale): 0 (<20% inhibition)
pest or weed control at 130 µg/mL [1]: 50%
plant injury at 130 µg/mL [2]: 20%
pest or weed control at 130 µg/mL [3]: 80%
Germination Score ([8]; 30 ppm, 0-8 scale): 1 (20-34% inhibition)
Germination Score ([8]; 100 ppm, 0-8 scale): 5 (65-74% inhibition)
Germination Score ([8]; 300 ppm, 0-8 scale): 5 (65-74% inhibition)
plant injury at 130 µg/mL [4]: 30%
pest or weed control at 130 µg/mL [5]: 20%
pest or weed control at 130 µg/mL [6]: 70%

CCOC(=O)CN(c1ccc(Cl)cc1)S(C)(=O)=O [Example 12]
pest or weed control at 130 µg/mL [1]: 40%
plant injury at 130 µg/mL [2]: 5%
pest or weed control at 130 µg/mL [3]: 80%
plant injury at 130 µg/mL [4]: 0%
pest or weed control at 130 µg/mL [5]: 5%
pest or weed control at 130 µg/mL [6]: 70%

CCOC(=O)CN(c1c(C)cccc1C)S(C)(=O)=O [Example 14]
pest or weed control at 130 µg/mL [1]: 30%
plant injury at 130 µg/mL [2]: 20%
pest or weed control at 130 µg/mL [3]: 90%
plant injury at 130 µg/mL [4]: 40%
pest or weed control at 130 µg/mL [5]: 30%
pest or weed control at 130 µg/mL [6]: 100%

CCOC(=O)CN(c1cccc(C(F)(F)F)c1)S(C)(=O)=O [Example 17]
pest or weed control at 130 µg/mL [1]: 40%
plant injury at 130 µg/mL [2]: 0%
pest or weed control at 130 µg/mL [3]: 90%
plant injury at 130 µg/mL [4]: 0%
pest or weed control at 130 µg/mL [5]: 0%
pest or weed control at 130 µg/mL [6]: 40%

CCOC(=O)CN(c1ccc(Cl)c(Cl)c1)S(C)(=O)=O [Example 18]
pest or weed control at 130 µg/mL [1]: 40%
plant injury at 130 µg/mL [2]: 0%
pest or weed control at 130 µg/mL [3]: 80%
plant injury at 130 µg/mL [4]: 30%
pest or weed control at 130 µg/mL [5]: 30%
pest or weed control at 130 µg/mL [6]: 40%

CCN(CC)C(=O)CN(c1ccc(Cl)cc1)S(C)(=O)=O [Example 35]
pest or weed control at 130 µg/mL [1]: 20%
plant injury at 130 µg/mL [2]: 20%
pest or weed control at 130 µg/mL [3]: 40%
plant injury at 130 µg/mL [4]: 20%
pest or weed control at 130 µg/mL [5]: 20%
pest or weed control at 130 µg/mL [6]: 100%

CCN(CC)C(=O)CN(c1c(C)cccc1C)S(C)(=O)=O [Example 36]
pest or weed control at 130 µg/mL [1]: 20%
plant injury at 130 µg/mL [2]: 20%
pest or weed control at 130 µg/mL [3]: 40%
plant injury at 130 µg/mL [4]: 20%
pest or weed control at 130 µg/mL [5]: 20%
pest or weed control at 130 µg/mL [6]: 100%

CS(=O)(=O)N(CC#N)c1ccc(Cl)cc1 [Example 45]
pest or weed control at 130 µg/mL [1]: 20%
plant injury at 130 µg/mL [2]: 70%
pest or weed control at 130 µg/mL [3]: 90%
plant injury at 130 µg/mL [4]: 30%
pest or weed control at 130 µg/mL [5]: 80%
pest or weed control at 130 µg/mL [6]: 100%

CC(C)c1ccccc1N(CC#N)S(C)(=O)=O [Example 47]
pest or weed control at 130 µg/mL [1]: 10%
plant injury at 130 µg/mL [2]: 30%
pest or weed control at 130 µg/mL [3]: 100%
plant injury at 130 µg/mL [4]: 10%
pest or weed control at 130 µg/mL [5]: 50%
pest or weed control at 130 µg/mL [6]: 80%

CS(=O)(=O)N(CC#N)c1cccc(C(F)(F)F)c1 [Example 48]
pest or weed control at 130 µg/mL [1]: 50%
plant injury at 130 µg/mL [2]: 80%
pest or weed control at 130 µg/mL [3]: 100%
plant injury at 130 µg/mL [4]: 40%
pest or weed control at 130 µg/mL [5]: 90%
pest or weed control at 130 µg/mL [6]: 100%

CC(=O)CN(c1c(C)cccc1Cl)S(C)(=O)=O [Example 210, N-2-oxopropyl-2'-chloro-6'-methyl-methanesulphonanilide]
pest or weed control at 130 µg/mL [1]: 30%
plant injury at 130 µg/mL [2]: 60%
pest or weed control at 130 µg/mL [3]: 80%
plant injury at 130 µg/mL [4]: 5%
pest or weed control at 130 µg/mL [5]: 70%
pest or weed control at 130 µg/mL [6]: 100%

CC1(CN(c2ccc(Cl)cc2)S(C)(=O)=O)OCCO1 [Example 228, N-[(2-methyl-1,3-dioxolan-2-yl)methyl]-4'-chloro-methanesulphonanilide]
Mycelial Control Score [7, 9]: 8 (>94% inhibition)
Germination Score [8, 9]: 0 (<20% inhibition)

Source: US4309559A, “Sulphonamides useful as pesticides” (FBC Limited, priority 1977, dated 1982)
